{"source": "patent US20020111386A1", "about": "“Apparatus for pulmonary delivery of drugs with simultaneous liquid lavage and ventilation” (priority 1989, published 2002)", "tested_on": "anesthetized and tracheotomized young cats", "assay": "Pulmonary administration of drugs dispersed in PFC liquid during liquid ventilation: cardiovascular and airway smooth muscle effects", "format": "in vivo, cat", "conditions": "for effect on airway on addition to perfluorocarbon ventilation liquid: added to a perfluorocarbon ventilation liquid", "description": "When testing the dose-dependency effect of the pulmonary administration of acetylcholine [ACh], the effect after the administration of the drug (expressed as a percentage of the baseline), as a function of the concentration of the drug, was monitored.\nHere, the ACh was dispersed in the PFC liquid medium. The initial amount of ACh dispersed in the PFC liquid was 0.01 mg per each kilogram of the laboratory animal's body weight.\n(§1) Each of the animals tested had at least one of the following parameters recorded before, during and after the pulmonary administration of the drug: (a) heart rate (bpm), (b) mean arterial pressure (mm Hg), and (c) tracheal pressure (cm water). The averages for each of these recorded parameters were then calculated, depending upon the number of cats tested. These calculated values are plotted on the graph in FIG. 35.\nIn addition to the above, the following parameters were also monitored and/or controlled: tidal volume, inspiratory and expiratory liquid flow rate, arterial chemistry, pulmonary compliance and resistance, and/or breathing frequency.\nFor each incremental increase, the animals tested had at least one of the aforementioned parameters recorded before and after the pulmonary administration of the drug.\nAlso for each incremental increase, the averages for each recorded parameter were calculated and plotted on the graph in FIG. 35.\nAnother way in which the effect of the pulmonary administration of ACh was tested was by monitoring carotid pressure, as a function of time, before, during and after the pulmonary administration of the drug. Here, 0.6 mg/kg of Ach was dispersed in the PFC liquid medium.\nYet another way in which the effect of the pulmonary administration of ACh was tested was by monitoring tracheal pressure, as a function of time, before, during and after the pulmonary administration of the drug.\nHere, 0.6 mg/kg of ACh was dispersed in the PFC liquid medium.\nWhen testing the dose-dependency effect of the pulmonary administration of epinephrine [Epi], the effect after the administration of the drug (expressed as a percentage of the baseline), as a function of the concentration of the drug, was monitored.\nHere, the Epi was dispersed in the PFC liquid medium. The initial amount of Epi dispersed in the PFC liquid was 0.01 mg Per each kilogram of the laboratory animal's body weight.\nas §1, with “before” for “before, during”, “36.” for “35.”\nAlso for each incremental increase, the averages for each recorded parameter were calculated and plotted on the graph in FIG. 36.\nAnother way in which the effect of the pulmonary administration of Epi was tested was by monitoring the change in mean arterial pressure and heart rate resulting from drug delivery.\nHere, 0.50 mg/kg of Epi was dispersed in the PFC liquid medium.\nWhen testing the dose-dependency effect of the pulmonary administration of priscoline [P], the effect after the administration of the drug (expressed as a percentage of the baseline), as a function of the concentration of the drug, was monitored.\nHere, the P was dispersed in the PFC liquid medium. The initial amount of P dispersed in the PFC liquid was 4 mg.\nEach of the animals tested weighed approximately 3 kg. Each of these test animals had at least one of the following parameters recorded before and after the pulmonary administration of the drug: (a) heart rate (bpm), (b) mean arterial pressure (mm Hg), and (c) right ventricular pressure.\nThe averages for each of the aforementioned recorded parameters were then calculated, depending upon the number of cats tested. These calculated values are plotted on the graph in FIG. 37. […]", "key": {"[1]": {"conditions": "P 4 mg to 12 mg in inspired PFC liquid, animals approx. 3 kg, FIG. 37"}, "[2]": {"conditions": "Epi 0.01 to 1.0 mg/kg in inspired PFC liquid, FIG. 36"}}, "data": [{"smiles": "CC(C)NCC(O)c1ccc(O)c(O)c1", "note": "(centres unmarked) [isoproterenol]", "values": [{"measurement": "effect on airway on addition to perfluorocarbon ventilation liquid", "value": "Airway dilation"}]}, {"smiles": "CC(=O)OCC[N+](C)(C)C", "note": "[ACh, acetylcholine]", "values": [{"measurement": "increase in tracheal pressure after drug administration", "setting": "0.6 mg/kg ACh in PFC liquid", "value": "about 6 mm Hg"}, {"measurement": "total time necessary to decrease the carotid pressure by about 40 mm Hg", "setting": "0.6 mg/kg ACh in PFC liquid", "value": "about 10 seconds"}, {"measurement": "total time necessary to increase the tracheal pressure (cm water) by about 5 mm Hg", "setting": "0.6 mg/kg ACh in PFC liquid", "value": "about 20 seconds"}, {"measurement": "decrease in carotid pressure after drug administration", "setting": "0.6 mg/kg ACh in PFC liquid, via endotracheal tube", "value": "about 40 mm Hg"}]}, {"smiles": "c1ccc(CC2=NCCN2)cc1", "note": "[P, priscoline]", "values": [{"measurement": "decrease in carotid pressure after drug administration", "setting": "12 mg P in PFC liquid", "value": "about 30 mm Hg"}, {"measurement": "onset of decrease in carotid pressure after administration", "setting": "12 mg P in PFC liquid", "value": "almost instantaneously"}, {"measurement": "total time necessary to decrease the carotid pressure by about 30 mm Hg", "setting": "12 mg P in PFC liquid", "value": "about 10 seconds"}, {"measurement": "heart rate, dose-dependent response (percentage of baseline)", "setting": "[1]", "value": "remained fairly constant"}, {"measurement": "mean arterial pressure, dose-dependent response (percentage of baseline)", "setting": "[1]", "value": "decreases"}, {"measurement": "right ventricular pressure, dose-dependent response (percentage of baseline)", "setting": "[1]", "value": "decreases"}]}, {"smiles": "CNC[C@H](O)c1ccc(O)c(O)c1", "note": "[Epi, epinephrine]", "values": [{"measurement": "decrease in tracheal pressure after drug administration", "setting": "0.50 mg/kg Epi in PFC liquid", "value": 31, "unit": "%"}, {"measurement": "increase in heart rate after drug administration", "setting": "0.50 mg/kg Epi in PFC liquid", "value": 33, "unit": "%"}, {"measurement": "heart rate, dose-dependent response (percentage of baseline)", "setting": "[2]", "value": "increases"}, {"measurement": "mean arterial pressure, dose-dependent response (percentage of baseline)", "setting": "[2]", "value": "increases"}, {"measurement": "peak tracheal pressure, dose-dependent response (percentage of baseline)", "setting": "[2]", "value": "decrease"}, {"measurement": "effect on airway on addition to perfluorocarbon ventilation liquid", "value": "Airway dilation"}]}]}
